Experiments:
[1] = tested on: PC3MM2; assay: In vitro cell culture growth assay (MTS), PC3MM2; format: cell-based, Human; conditions: prostate line, 3 days after drug treatment
Protocol: (§1) Human tumor cell lines (Table 3) include prostate lines LNCap and PC3MM2, breast lines MDA468, MCF7, renal line HTB44 (A498), colon line HCT116, and ovarian line OVCAR3. Cells were plated in 96-well culture plates.
(§2) One day following plating, the following conjugates (inhibitors) were added to cells: • Compound A 42,17′-linked wortmannin-adipate-rapamycin conjugate, diethylamine adduct • Compound B 42,17′-linked wortmannin-adipate-rapamycin conjugate. • Compound C 42,17′-linked wortmannin-succinate-rapamycin conjugate, N,N,N′-trimethyl 1,3-propanediamine adduct • Compound D 42,17′-linked wortmannin-adipate-rapamycin conjugate, diallylamine adduct • Compound E 42,17′-linked wortmannin-adipate-rapamycin conjugate, N,N,N′-trimethyl 1,3-propanediamine adduct • Compound F 42,17′-linked wortmannin-suberate-rapamycin conjugate, N,N,N′-trimethyl 1,3-propanediamine adduct.
(§3) Three days after drug treatment, viable cell densities were determined by metabolic conversion (by viable cells) of the MTS dye (3-(4,5-dimethylthiazol-2-yl)-5-(3 carboxymethoxyphenyl)-2-(4-sulfophenyl)-2H-tetrazolium, inner salt), a well established cell proliferation assay. The assays were performed using an assay kit purchased from Promega Corp. (Madison, Wis.) following the protocol supplied with the kit. The MTS assay results were read in a 96-well plate reader by measuring absorbance at 490 nm. The effect of each treatment was calculated as percent of control growth relative to the vehicle-treated cells grown in the same culture plate. The drug concentration that conferred 50% inhibition of growth was determined as IC50 (μg/mL). See, Table 3.

[2] = tested on: OVCAR3; assay: In vitro cell culture growth assay (MTS), OVCAR3; format: cell-based, Human; conditions: ovarian line, 3 days after drug treatment
Protocol: as §1, §2, §3

[3] = tested on: HCT116; assay: In vitro cell culture growth assay (MTS), HCT116; format: cell-based, Human; conditions: colon line, 3 days after drug treatment
Protocol: as §1, §2, §3

[4] = tested on: LNCap; assay: In vitro cell culture growth assay (MTS), LNCap; format: cell-based, Human; conditions: prostate line, 3 days after drug treatment
Protocol: as §1, §2, §3

[5] = tested on: HTB44 (A498); assay: In vitro cell culture growth assay (MTS), HTB44 (A498); format: cell-based, Human; conditions: renal line, 3 days after drug treatment
Protocol: as §1, §2, §3

[6] = tested on: MCF7; assay: In vitro cell culture growth assay (MTS), MCF7; format: cell-based, Human; conditions: breast line, 3 days after drug treatment
Protocol: as §1, §2, §3

[7] = tested on: MDA468; assay: In vitro cell culture growth assay (MTS), MDA468; format: cell-based, Human; conditions: breast line, 3 days after drug treatment
Protocol: as §1, §2, §3

[8] = tested on: U87MG Glioma Xenografts; assay: Xenograft tumor efficacy study, U87MG glioma in nude mice; format: in vivo; conditions: for Tumor Volume mean, Day 14 / S/T (D14), Survival over total in group / t/c (Treated over control) tumor volume, Day 14: Day 14
Protocol: Female nude mice at 10 weeks of age were inoculated subcutaneously on the flank with 200 μL U87MG (human gliobastoma) tumor cell suspension. U87MG cells were suspended in full growth media and were implanted at 10 million cells per mouse. Mice were staged when tumors reached approximately 200 mm^3 in sizes. Tumor bearing mice at staging (day 0) were randomized into treatment groups (n=10). […]
The growth of tumors was monitored twice a week for the duration of the experiment. Tumor size was measured using sliding vernier calipers, and the tumor mass was calculated using the formula (length×Width^2)/2.
The experimental methods for drug preparation, dosing route, regimen, etc (listed in the Table 4) were similar to the experiments presented in the Figures. The data in Table 4 and the Figures were derived from multiple and completely different experiments. Within Table 4, the data contained separate experiments.

[9] = tested on: C3H mammary model; conditions: cited from earlier work
[10] = tested on: PI3K; conditions: cited from earlier work

Row | Compound | IC50 inhibition of tumor cell growth, PC2MM2 [1] [µg/mL] | IC50 inhibition of tumor cell growth, OVCAR3 [2] [µg/mL] | IC50 inhibition of tumor cell growth, HCT116 [3] [µg/mL] | IC50 inhibition of tumor cell growth, LNCap [4] [µg/mL] | IC50 inhibition of tumor cell growth, HTB44 [5] [µg/mL] | IC50 inhibition of tumor cell growth, MCF7 [6] [µg/mL] | IC50 inhibition of tumor cell growth, MDA468 [7] [µg/mL] | Tumor Volume mean, Day 0 ([8]; 3 mg/kg IV on day 0 and day 7) [mm^3] | Tumor Volume mean, Day 3 ([8]; 3 mg/kg IV on day 0 and day 7) [mm^3] | Tumor Volume mean, Day 7 ([8]; 3 mg/kg IV on day 0 and day 7) [mm^3] | Tumor Volume mean, Day 10 ([8]; 3 mg/kg IV on day 0 and day 7) [mm^3] | Tumor Volume mean, Day 14 ([8]; 3 mg/kg IV on day 0 and day 7) [mm^3] | t/c (Treated over control) tumor volume, Day 0 ([8]; 3 mg/kg) | t/c (Treated over control) tumor volume, Day 3 ([8]; 3 mg/kg) | t/c (Treated over control) tumor volume, Day 7 ([8]; 3 mg/kg) | t/c (Treated over control) tumor volume, Day 10 ([8]; 3 mg/kg) | S/T (D14), Survival over total in group ([8]; 3 mg/kg) | t/c (Treated over control) tumor volume, Day 14 ([8]; 3 mg/kg) | Tumor Volume mean, Day 0 ([8]; 15 mg/kg IV on day 0 and day 7) [mm^3] | Tumor Volume mean, Day 3 ([8]; 15 mg/kg IV on day 0 and day 7) [mm^3] | further results
1 | 42,17′-linked wortmannin-adipate-rapamycin conjugate [Compound B] | 1.10 | 4.70 | 16.50 | 0.80 | 3.50 | 1.00 | 2.05 | – | – | – | – | – | – | – | – | – | – | – | – | – | –
2 | 42,17′-linked wortmannin-adipate-rapamycin conjugate, N,N,N′-trimethyl 1,3-propanediamine adduct [Compound E] | 1.95 | 3.15 | 7.50 | 0.25 | 5.00 | 1.00 | 1.35 | 182.7 | 214.7 | 340.2 | 471.6 | 595.9 | 0.99 | 0.78 | 0.68 | 0.45 | 10/10 | 0.27 | 187.5 | 168.0 | Tumor Volume mean, Day 7 ([8]; 15 mg/kg IV on day 0 and day 7): 181.6 mm^3; Tumor Volume mean, Day 10 ([8]; 15 mg/kg IV on day 0 and day 7): 165.8 mm^3; Tumor Volume mean, Day 14 ([8]; 15 mg/kg IV on day 0 and day 7): 162.8 mm^3; t/c (Treated over control) tumor volume, Day 0 ([8]; 15 mg/kg): 1.01; t/c (Treated over control) tumor volume, Day 3 ([8]; 15 mg/kg): 0.61; t/c (Treated over control) tumor volume, Day 7 ([8]; 15 mg/kg): 0.36; t/c (Treated over control) tumor volume, Day 10 ([8]; 15 mg/kg): 0.16; S/T (D14), Survival over total in group ([8]; 15 mg/kg): 10/10; t/c (Treated over control) tumor volume, Day 14 ([8]; 15 mg/kg): 0.07; efficacy in multi-cycle treatment (FIG. 2) ([8]; multi-cycle treatment): sustained efficacy
3 | 42,17′-linked wortmannin-adipate-rapamycin conjugate, diallylamine adduct [Compound D] | 0.43 | 1.75 | 5.00 | 0.21 | 4.10 | 0.66 | 1.15 | 185.1 | 244.5 | 435.4 | 636.4 | 1050.1 | 1.00 | 0.89 | 0.87 | 0.60 | 10/10 | 0.47 | 181.5 | 186.0 | Tumor Volume mean, Day 10 ([8]; 15 mg/kg IV on day 0 and day 7): 242.5 mm^3; Tumor Volume mean, Day 14 ([8]; 15 mg/kg IV on day 0 and day 7): 254.6 mm^3; t/c (Treated over control) tumor volume, Day 0 ([8]; 15 mg/kg): 0.98; t/c (Treated over control) tumor volume, Day 3 ([8]; 15 mg/kg): 0.68; t/c (Treated over control) tumor volume, Day 10 ([8]; 15 mg/kg): 0.23; S/T (D14), Survival over total in group ([8]; 15 mg/kg): 10/10; t/c (Treated over control) tumor volume, Day 14 ([8]; 15 mg/kg): 0.11
4 | 42,17′-linked wortmannin-adipate-rapamycin conjugate, diethylamine adduct [Compound A] | 2.55 | 8.50 | >30 | 0.04 | 0.57 | 0.29 | 0.38 | – | – | – | – | – | – | – | – | – | – | – | – | – | –
5 | 42,17′-linked wortmannin-succinate-rapamycin conjugate, N,N,N′-trimethyl 1,3-propanediamine adduct [Compound C] | 0.50 | 1.13 | 4.20 | 0.20 | 2.00 | 0.38 | 1.20 | 193.0 | 209.6 | 437.2 | 691.8 | 1091.7 | 1.04 | 0.76 | 0.88 | 0.66 | 10/10 | 0.49 | 183.6 | 193.5 | Tumor Volume mean, Day 7 ([8]; 15 mg/kg IV on day 0 and day 7): 246.7 mm^3; Tumor Volume mean, Day 10 ([8]; 15 mg/kg IV on day 0 and day 7): 294.2 mm^3; t/c (Treated over control) tumor volume, Day 0 ([8]; 15 mg/kg): 0.99; t/c (Treated over control) tumor volume, Day 3 ([8]; 15 mg/kg): 0.70; t/c (Treated over control) tumor volume, Day 7 ([8]; 15 mg/kg): 0.49; t/c (Treated over control) tumor volume, Day 10 ([8]; 15 mg/kg): 0.28; S/T (D14), Survival over total in group ([8]; 15 mg/kg): 10/10; t/c (Treated over control) tumor volume, Day 14 ([8]; 15 mg/kg): 0.11; antitumor activity (FIG. 2) ([8]; i.v. 1× weekly for 2 rounds at 1.5 mg/kg): improved inhibition of tumor cell growth; antitumor activity (FIG. 2) ([8]; i.v. 1× weekly for 2 rounds at 4.5 mg/kg): some improvement; antitumor activity (FIG. 2) ([8]; i.v. 1× weekly for 8 rounds at 15 mg/kg): Significant improvement
6 | COCC1OC(=O)c2coc3c2C1(C)C1=C(C3=O)C2CCC(O)C2(C)CC1OC(C)=O (stereo not drawn) [17β-Hydroxywortmannin] | – | – | – | – | – | – | – | – | – | – | – | – | – | – | – | – | – | – | – | – | anti-tumor activity in the C3H mammary model ([9]; dose of 0.5 mg/kg): no inhibition; toxicity in the C3H mammary model ([9]; dose of 1.0 mg/kg): toxicity; increase in activity relative to wortmannin ([10]; PI3K): 10 fold; IC50 [10]: 0.5 nM

From patent US20080249123A1, “WORTMANNIN-RAPAMYCIN CONJUGATE AND USES THEREOF” (Wyeth, priority 2007, published 2008)
